Entries after “also recorded” stand apart in the source; their conditions may differ. Where a SMILES comes first, the peptide text is derived from it. [ ]: non-standard residue; d: D form. Nle = CCCC[C@H](N)C(=O)O
How the values were obtained:
[1] = tested on: occludin cleavage by calpain (45 kDa occludin cleavage product); assay: Occludin cleavage: immunoprecipitation and immunoblot in 1HAEo- cells; assay type: cell-based, human; details: for Generation of occludin cleavage product in presence of inhibitor: 6 μM BAPTA/AM, 20 μM ALLN, 20 μM GM6001, 25 μM Z-DEVD-FMK
Procedure: (§1) 1HAEo-cells or SAECs were grown to confluence on 10 cm plates, stimulated with heat killed PAO1 (10^7 CFU) or P3C (15 μg/ml), and whole cell lysates made using 60 mM n-octyl-β-D-glucopyranoside (OGP) in TBS (0.1 M Tris-HCl and 0.15 M NaCl, pH 7.8) containing Complete Mini protease inhibitor tablets (Roche), 1 mM sodium orthovanadate and 100 mM sodium fluoride. Monoclonal anti-E-cadherin (BD Pharmingen), polyclonal anti-pan calpain (Santa Cruz Biotechnologies) or monoclonal anti-occludin (Invitrogen/Zymed) antibodies were used for immunoprecipitations followed by the addition of Protein G Agarose beads (Invitrogen) (Chun and Prince, 2006). Immunodetection was performed using monoclonal anti-E-cadherin, polyclonal anti-occludin, anti-pan calpain, anti-calpain 1 and anti-calpain 2 antibodies (Santa Cruz Biotechnology).
1HAEo-cells were transiently transfected with scrambled (control) or calpain 1 and 2 siRNA Smart pool oligos (Dharmacon) (FIGS. 11 and 12). Transfection was carried out using an Amaxa Nucleofector following manufacturer's instructions. Briefly, 10^6 1HAEo-cells were electroporated in 100 μl Buffer L with 1.5 μg of scrambled or siRNA oligo and transferred into pre-warmed 6 well tissue culture dishes. Cells were incubated at 37° C., 5% CO2 for 48 hours before performing experiments.

[2] = tested on: SARS-associated coronavirus; details: one isolate of the coronavirus; cited from earlier work
[3] = tested on: occludin, E-cadherin and calpain localization in 16HBE cells; assay: Confocal imaging of junctional proteins and calpain in polarized 16HBE cells; assay type: cell-based, human; details: for Co-localization of calpain and E-cadherin: 1 hr stimulation; for Distribution of occludin and E-cadherin at cell junctions: 6 hr exposure
Procedure: (§2) 16HBE cells were grown on 3 μm pore size Transwell-Clear filters (Corning-Costar) with an air-liquid interface to form polarized monolayers. For confocal imaging, cells were fixed with 4% paraformaldehyde, blocked with 5% normal donkey serum and incubated at 4° C. overnight with the polyclonal pan-calpain (Santa Cruz Biotechnology), monoclonal occludin (Invitrogen/Zymed) and/or monoclonal E-cadherin (BD Pharmingen) antibodies. Alexa Fluor 594 conjugated and Alexa Fluor 488 conjugated secondary antibodies (Invitrogen/Molecular Probes) were added at room temperature for 1 h. After washing, filters were removed from Transwells using a scalpel, mounted with Vectashield with DAPI (Vector Laboratories) onto glass slides and imaged using a Zeiss LSM 510 Meta scanning confocal microscope. For biotin labeling experiments 1 mg/ml EZ-Link Sulfo-NHS-LC-Biotin was added apically for 30 min at 4° C. before fixing the cells. Alexa Fluor 555 conjugated streptavidin (Molecular Probes) was added for detection of biotin.

[4] = tested on: E-cadherin cleavage by calpain (100 kDa E-cadherin cleavage product); assay: E-cadherin cleavage: immunoblot in 1HAEo- cells; assay type: cell-based, human; details: airway cells, 4 hr stimulation
Procedure: as §1

[5] = tested on: epithelial cell junctions of polarized 16HBE cells; assay: Biotin labeling and confocal microscopy of polarized 16HBE monolayers; assay type: cell-based, human; details: 4 h incubation
Procedure: as §2

calpain 2 mRNA = assay: Real time PCR of calpains and calpastatin in 1HAEo- cells
polarized 16HBE cells [6] = assay: Transepithelial resistance and dextran permeability assays; assay type: cell-based, human
Procedure: Polarized 16HBE cells grown in 12 mm Transwell-Clear filters (Corning-Costar) were stimulated apically with 10^7 CFU of heat killed PAO1. Transepithelial resistance readings were taken using a Millipore resistance reader which applies a 20 μA square wave alternating current across the monolayers at 12.5 Hz. The resistance of Transwell inserts without cells was used as a baseline control. After 5 h of stimulation, Alexa Fluor 488 labeled dextran (10,000 MW) was added apically for 1 h and fluorescence in the basal compartment monitored at ex 485, em 535 with a SpectraFluor Plus fluorimeter (Tecan). As a positive control, cells were treated apically and basolaterally for 1 h with 0.02% EGTA, an extracellular Ca^2+ chelator which increases paracellular permeability by disrupting cadherin mediated cell-cell adhesion.

polarized 16HBE cells [7] = assay: Bacterial transmigration assay
Procedure: Polarized 16HBE cells were pretreated with media alone, heat killed PAO1 (10^7 CFU), P3C (15 μg/ml), or thapsigargin (0.1 μM) for 4 h. Live PAO1 (2×10^7 CFU) were added apically for 1 h and media from the basal compartment collected and plated on LB agar plates. Bacterial transmigration across monolayers pretreated with 0.02% EGTA was used as a positive control.

calpain = assay: Calpain assay with cell permeable fluorogenic calpain substrate (Boc-LM-CMAC); assay type: cell-based, human; details: 1HAEo- cells and SAEC
Procedure: Confluent monolayers of 1HAEo-cells or SAECs were loaded with 20 μM t-BOC-L-leucine-L-methionine amide (Boc-LM-CMAC), a calpain specific membrane permeable fluorogenic substrate. Cells were stimulated with heat killed PAO1 (10^7 CFU) or P3C (15 μg/ml) and fluorescence was quantified at ex 360 nm and em 465 nm with a Spectrafluor Plus fluorimeter (Tecan).

[8] = tested on: NF-κB activation, IL-8 production; assay: NF-κB activation and IL-8 production in airway cells; assay type: cell-based; details: cells treated with BAPTA/AM to chelate intracellular Ca2+
E-cadherin, P12830 = target: T1, E-cadherin, P12830
T1 chain: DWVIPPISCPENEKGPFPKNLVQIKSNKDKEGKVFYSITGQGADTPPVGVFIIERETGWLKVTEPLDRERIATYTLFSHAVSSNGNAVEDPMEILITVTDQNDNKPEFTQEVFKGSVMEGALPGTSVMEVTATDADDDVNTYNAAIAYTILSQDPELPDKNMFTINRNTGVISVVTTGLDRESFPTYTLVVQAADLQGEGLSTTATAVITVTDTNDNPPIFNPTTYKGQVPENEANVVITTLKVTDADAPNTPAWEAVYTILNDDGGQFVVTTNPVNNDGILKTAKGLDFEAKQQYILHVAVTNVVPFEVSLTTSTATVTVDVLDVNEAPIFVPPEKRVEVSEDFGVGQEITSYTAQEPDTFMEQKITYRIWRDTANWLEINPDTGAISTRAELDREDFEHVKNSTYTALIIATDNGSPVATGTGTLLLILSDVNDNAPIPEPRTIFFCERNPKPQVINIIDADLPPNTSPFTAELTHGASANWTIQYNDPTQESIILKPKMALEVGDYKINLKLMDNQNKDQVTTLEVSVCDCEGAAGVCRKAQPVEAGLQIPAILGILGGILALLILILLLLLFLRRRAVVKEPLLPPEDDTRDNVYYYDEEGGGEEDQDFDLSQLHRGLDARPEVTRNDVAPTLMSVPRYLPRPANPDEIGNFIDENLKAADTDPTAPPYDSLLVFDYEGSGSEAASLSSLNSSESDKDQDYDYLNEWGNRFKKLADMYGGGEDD

occludin, Q16625 = target: T2, occludin, Q16625
T2 chain: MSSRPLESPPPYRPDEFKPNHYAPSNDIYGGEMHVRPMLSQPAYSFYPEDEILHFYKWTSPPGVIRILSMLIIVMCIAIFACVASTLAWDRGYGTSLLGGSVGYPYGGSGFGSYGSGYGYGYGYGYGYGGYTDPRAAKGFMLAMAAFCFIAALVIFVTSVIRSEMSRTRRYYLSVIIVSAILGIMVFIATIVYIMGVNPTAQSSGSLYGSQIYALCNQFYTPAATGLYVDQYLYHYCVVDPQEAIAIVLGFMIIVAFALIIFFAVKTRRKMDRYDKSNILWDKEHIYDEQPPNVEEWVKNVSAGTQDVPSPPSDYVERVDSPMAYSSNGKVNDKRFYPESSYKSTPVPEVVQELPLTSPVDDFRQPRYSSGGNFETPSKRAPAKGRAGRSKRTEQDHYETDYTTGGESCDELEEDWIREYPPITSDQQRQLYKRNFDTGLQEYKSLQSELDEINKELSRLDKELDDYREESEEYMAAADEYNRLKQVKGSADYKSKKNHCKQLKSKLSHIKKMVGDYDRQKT

## CNC(=O)[C@H](Cc1c[nH]c2ccccc12)NC(=O)[C@@H](CC(=O)NO)CC(C)C [GM6001]
[1]
  Generation of occludin cleavage product in presence of inhibitor: neither the general matrix metalloproteinase inhibitor GM6001 nor the caspase inhibitor Z-DEVD-FMK blocked

## CCCC[C@@H](C=O)NC(=O)[C@H](CC(C)C)NC(=O)[C@H](CC(C)C)NC(C)=O [ALLN, N-acetyl-leucyl-leucyl-norleucinal] (Ac-Leu-Leu-[Nle]-aldehyde)
[1]
  Generation of occludin cleavage product in presence of inhibitor: blocked generation of the occludin cleavage product

## NC(=O)c1ncn([C@@H]2O[C@H](CO)[C@@H](O)[C@H]2O)n1 [Ribavirin]
[2]
  Virus growth or cell-to-cell spread: does not inhibit

## COC(=O)CC[C@H](NC(=O)[C@H](CC(=O)OC)NC(=O)OCc1ccccc1)C(=O)N[C@H](C(=O)N[C@@H](CC(=O)OC)C(=O)CF)C(C)C [Z-DEVD-FMK]
[1]
  Generation of occludin cleavage product in presence of inhibitor: neither the general matrix metalloproteinase inhibitor GM6001 nor the caspase inhibitor Z-DEVD-FMK blocked

## C/C=C(/C)C(=O)O[C@H]1C(C)=C2[C@H]([C@@H]1OC(=O)CCCCCCC)[C@@](C)(OC(C)=O)C[C@H](OC(=O)CCC)[C@@]1(O)[C@H]2OC(=O)[C@@]1(C)O [thapsigargin]
[3]
  Co-localization of calpain and E-cadherin: increased; also recorded: induced mobilization and co-localization of calpain with E-cadherin
[4]
  100 kDa E-cadherin cleavage product after stimulation: generation of a 100 kDa E-cadherin cleavage product
[5]
  Penetration of biotin between cells of polarized monolayer: resulted in the penetration of biotin; also recorded: increase in accessibility of the junctions to biotin

## Pam3Cys-Ser-Lys4 [P3C]
[1]; 1HAEo- and SAEC, 1 hour post stimulation
  45 kDa occludin cleavage product after stimulation: readily identified
Calpain 2 mRNA
  Transcription of calpain 2: increased
Polarized 16HBE cells [6]
  Transepithelial resistance: no changes
[3]
  Co-localization of calpain and E-cadherin: increased; also recorded: co-localizing with E-cadherin
  Distribution of occludin and E-cadherin at cell junctions: dramatic loss; also recorded: altered
[3]; 1 h stimulation
  Co-localization of calpain and occludin: Increased co-localization; also recorded: co-localized with membrane-associated occludin; also recorded: Increased colocalization
[3]; listed as PC3
  Distribution of occludin and E-cadherin at cell junctions: altered
Polarized 16HBE cells [7]
  Bacterial invasion across the monolayer: no changes
[4]
  100 kDa E-cadherin cleavage product after stimulation: generation of a 100 kDa E-cadherin cleavage product
calpain
  Calpain activity after exposure to the stimulus: significantly increased; also recorded: sufficient to activate calpain
calpain; listed as Pam3Cys
  Calpain activity after exposure to the stimulus: activates calpain 2
[5]
  Penetration of biotin between cells of polarized monolayer: resulted in the penetration of biotin; also recorded: increase in accessibility of the junctions to biotin

## CC(=O)OCOC(=O)CN(CC(=O)OCOC(C)=O)c1ccccc1OCCOc1ccccc1N(CC(=O)OCOC(C)=O)CC(=O)OCOC(C)=O [BAPTA/AM]
[1]
  Generation of occludin cleavage product in presence of inhibitor: substantially decreased
[8]
  Distal proinflammatory signaling (NF-κB activation, IL-8 production): unable to activate distal proinflammatory signaling

B1: exogenous human calpain 1 (protein)
chain: SEEIITPVYCTGVSAQVQKQRARELGLGRHENAIKYLGQDYEQLRVRCLQSGTLFRDEAFPPVPQSLGYKDLGPNSSKTYGIKWKRPTELLSNPQFIVDGATRTDICQGALGDCWLLAAIASLTLNDTLLHRVVPHGQSFQNGYAGIFHFQLWQFGEWVDVVVDDLLPIKDGKLVFVHSAEGNEFWSALLEKAYAKVNGSYEALSGGSTSEGFEDFTGGVTEWYELRKAPSDLYQIILKALERGSLLGCSIDISSVLDMEAITFKKLVKGHAYSVTGAKQVNYRGQVVSLIRMRNPWGEVEWTGAWSDSSSEWNNVDPYERDQLRVKMEDGEFWMSFRDFMREFTRLEICNLTPDALKSRTIRKWNTTLYEGTWRRGSTAGGCRNYPATFWVNPQFKIRLDETDDPDDYGDRESGCSFVLALMQKHRRRERRFGRDMETIGFAVYEVPPELVGQPAVHLKRDFFLANASRARSEQFINLREVSTRFRLPPGEYVVVPSTFEPNKEGDFVLRFFSEKSAGTVELDDQIQANLPDEQVLSEEEIDENFKALFRQLAGEDMEISVKELRTILNRIISKHKDLRTKGFSLESCRSMVNLMDRDGNGKLGLVEFNILWNRIRNYLSIFRKFDLDKSGSMSAYEMRMAIESAGFKLNKKLYELIITRYSEPDLAVDFDNFVCCLVRLETMFRFFKTLDTDLDGVVTFDLFKWLQLTMFA
E-cadherin, P12830
  in vitro degradation (cleavage) of the immunoprecipitated protein by Ca2+-activated exogenous calpain, immunoblot: exogenous calpain activated by the addition of Ca2+ degraded occludin and E-cadherin, but not claudin-1 or JAM-1
occludin, Q16625
  in vitro degradation (cleavage) of the immunoprecipitated protein by Ca2+-activated exogenous calpain, immunoblot: exogenous calpain activated by the addition of Ca2+ degraded occludin and E-cadherin, but not claudin-1 or JAM-1
